Test results published in PMC6556873, “Rapid Covalent-Probe Discovery by Electrophile-Fragment Screening” (Journal of the American Chemical Society, 2019).
Where two headings read alike, the source gives them in different places.

Experiments:
in vitro [1] = experiment: in vitro; set-up: species or system HB2, HEK293; settings: human, ccd841 cells
NUDT7 = target: T1, NUDT7 (Homo sapiens, UniProt P0C024); set-up: Intact protein LC/MS covalent labelling, fragments in pools of five, 200 uM each, 4 °C; settings: 24 h, 4 °C, pool of five; 200 µM; covalent
T1 construct: residues 14-235, E. coli, pNIC28-Bsa4, N-terminal His6 tag removed by TEV, construct 26672 Da
T1 sequence (P0C024 14-235): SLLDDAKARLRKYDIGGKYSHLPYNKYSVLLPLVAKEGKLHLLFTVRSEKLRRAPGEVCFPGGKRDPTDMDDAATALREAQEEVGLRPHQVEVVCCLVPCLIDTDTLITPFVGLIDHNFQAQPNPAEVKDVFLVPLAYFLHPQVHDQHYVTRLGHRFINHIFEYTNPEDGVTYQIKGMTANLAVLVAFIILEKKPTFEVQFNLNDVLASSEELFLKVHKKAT
Procedure: (§1) Incubations were performed at 200 μM for each compound and 2 μM of protein (10 μM for BSA) for 24 h at 4 °C with moderate shaking. Incubation buffers varied among proteins (PBS pH 7.4 for QSOX1 and BSA; 10 mM HEPES pH 7.5, 0.3 M NaCl, 0.5 mM TCEP for PCAF, UPS8, and NUDT7; […]; 10 mM Na2HPO4 pH 7.5 100 mM NaCl 5 mM β-mercaptoethanol for NV3CP; 20 mM Na phosphate pH 7.5 for NNMT; […]. The reaction was stopped by quenching with formic acid, 0.4% final concentration. Each protein was incubated with the electrophilic library in pools of five compounds per well. The pool’s composition maximized the difference in mass between fragments in the same well. Incubations were performed with each fragment at 200 μM, for 24 h at 4 °C, to allow the screening of proteins that are not stable for long time periods at higher temperatures. Following incubation, we used intact protein [compound left out] chromatography/mass spectrometry (LC/MS) to identify the fragments and quantify their labeling (Figure 3A). […] There was good agreement between the percent of labeling of NUDT7 by 100 random individual compounds and that obtained in pools of five (R^2=0.78; Figure S6 and Data set 2 in the Supporting Information).

PCAF = target: T2, PCAF (Homo sapiens, UniProt Q92831); set-up: Intact protein LC/MS covalent labelling, fragments in pools of five, 200 uM each, 4 °C; settings: 24 h, 4 °C, pool of five; 200 µM; covalent
T2 construct: gene KAT2B
T2 sequence (Q92831 whole entry, the tested form may be a part): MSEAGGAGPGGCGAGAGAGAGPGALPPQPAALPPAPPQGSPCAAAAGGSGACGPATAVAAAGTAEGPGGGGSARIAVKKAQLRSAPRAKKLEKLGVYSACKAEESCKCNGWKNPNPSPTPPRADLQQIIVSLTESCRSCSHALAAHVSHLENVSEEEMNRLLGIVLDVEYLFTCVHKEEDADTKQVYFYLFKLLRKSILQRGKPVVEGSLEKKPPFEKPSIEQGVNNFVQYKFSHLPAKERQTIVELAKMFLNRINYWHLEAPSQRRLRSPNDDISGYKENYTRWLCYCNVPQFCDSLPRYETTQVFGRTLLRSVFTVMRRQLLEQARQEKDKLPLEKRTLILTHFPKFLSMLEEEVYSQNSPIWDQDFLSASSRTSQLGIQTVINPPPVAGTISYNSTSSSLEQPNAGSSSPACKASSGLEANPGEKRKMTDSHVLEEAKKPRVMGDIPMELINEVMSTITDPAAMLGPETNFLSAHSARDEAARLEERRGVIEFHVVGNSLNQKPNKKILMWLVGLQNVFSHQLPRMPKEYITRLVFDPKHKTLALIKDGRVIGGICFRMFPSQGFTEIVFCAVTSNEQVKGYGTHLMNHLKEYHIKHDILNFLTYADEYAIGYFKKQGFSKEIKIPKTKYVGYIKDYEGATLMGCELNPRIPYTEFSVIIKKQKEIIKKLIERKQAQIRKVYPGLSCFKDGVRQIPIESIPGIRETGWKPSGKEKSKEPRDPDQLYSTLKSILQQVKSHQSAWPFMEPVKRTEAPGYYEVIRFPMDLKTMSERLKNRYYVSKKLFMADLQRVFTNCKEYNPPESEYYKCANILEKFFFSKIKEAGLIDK
Procedure: as §1

BSA = target: T3, BSA (Bos taurus, UniProt P02769); set-up: Intact protein LC/MS covalent labelling, fragments in pools of five, 200 uM each, 4 °C; settings: 24 h, 4 °C, pool of five; 200 µM; covalent
T3 construct: gene ALB
T3 sequence (P02769 whole entry, the tested form may be a part): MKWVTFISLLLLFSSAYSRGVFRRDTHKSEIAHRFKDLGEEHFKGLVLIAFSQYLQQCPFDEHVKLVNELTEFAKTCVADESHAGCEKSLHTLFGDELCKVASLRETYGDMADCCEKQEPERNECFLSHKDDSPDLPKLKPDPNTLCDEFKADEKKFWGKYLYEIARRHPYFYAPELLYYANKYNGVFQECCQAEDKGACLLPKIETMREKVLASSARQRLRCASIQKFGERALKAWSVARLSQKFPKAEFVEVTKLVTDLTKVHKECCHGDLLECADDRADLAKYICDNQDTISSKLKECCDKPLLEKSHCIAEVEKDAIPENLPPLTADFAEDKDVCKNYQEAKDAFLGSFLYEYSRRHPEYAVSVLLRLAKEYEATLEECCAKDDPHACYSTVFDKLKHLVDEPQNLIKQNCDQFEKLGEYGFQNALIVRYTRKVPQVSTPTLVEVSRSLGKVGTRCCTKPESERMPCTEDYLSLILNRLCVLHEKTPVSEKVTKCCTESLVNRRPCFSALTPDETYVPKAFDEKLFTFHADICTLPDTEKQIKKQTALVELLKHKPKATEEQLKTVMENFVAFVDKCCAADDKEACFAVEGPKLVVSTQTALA
Procedure: as §1

in vitro [2] = experiment: in vitro; set-up: species or system HB2, CCD841; settings: human, hek293 cells
in vitro [3] = experiment: in vitro; set-up: species or system CCD841, HEK293; settings: human, hb2 cells, read-out: HB-2 Cells Viability (%)

Row | SMILES | NUDT7 (NUDT7) | PCAF (PCAF) | BSA (BSA) | viability at 48 h, 10 µM (in vitro [1]) [%] | viability at 48 h, 10 µM (in vitro [2]) [%] | viability at 48 h, 10 µM (in vitro [3]) [%]
1 | CC(=O)c1sc2nc(C)cc(C)c2c1NC(=O)CCl [PCM-0102108] | 0 | 0 | 0 | 99 | 101 | 103
2 | COc1ccc(C(=O)NNC(=O)CCl)cc1 [PCM-0102115] | 0.11 | 0 | 0 | 81.5 | 79.4 | 91.7
3 | O=C(CCl)Nc1ccc2[nH]c(C(F)(F)F)nc2c1 [PCM-0102151] | 0.07 | 0 | 0 | 28 | 1.3 | 7.4
4 | Cc1cccc([N+](=O)[O-])c1NC(=O)CCl [PCM-0102176] | 0.22 | 0 | 0 | 71.7 | 77.5 | 85.3
5 | CN(Cc1c(F)cccc1Cl)C(=O)CCl [PCM-0102184] | – | 0 | 0 | 42.2 | 4.9 | 9.3
6 | O=C(CCl)Nc1ccc(N2CCCCCC2)cc1 [PCM-0102199] | 0.08 | 0 | 0 | 31.8 | 4 | 7
7 | Cc1cccc(N2CCN(C(=O)CCl)CC2)c1C [PCM-0102215] | 0.29 | 0 | 0 | 43.8 | 11.1 | 7.5

More lines, main results first:

Row | NUDT7 (NUDT7) | PCAF (PCAF) | BSA (BSA) | SMILES | viability at 48 h, 10 µM (in vitro [1]) [%] | viability at 48 h, 10 µM (in vitro [2]) [%] | viability at 48 h, 10 µM (in vitro [3]) [%]
8 | 0.16 | 0 | 0 | N#Cc1cnn(-c2ccccc2)c1NC(=O)CCl [PCM-0102225] | 81 | 91 | 99
9 | 0.64 | 0.45 | 0 | O=C(CCl)Nc1c(Cl)cccc1Cl [PCM-0102234] | 77.5 | 101 | 96.3
10 | 0 | 0 | 0 | CC1CCN(c2ccc(NC(=O)CCl)cc2)CC1.Cl [PCM-0102235] | 48.3 | 18.9 | 21.9
11 | 0 | 0 | 0 | COc1ccc(NC(=O)NC(=O)CCl)cc1 [PCM-0102268] | 70.4 | 65 | 63.7
12 | 0.24 | 0 | 0 | Cc1cc(N2CCCC2)ccc1NC(=O)CCl [PCM-0102301] | 78.6 | 40.7 | 47.9
13 | 0 | 0 | 0 | O=C(CCl)NNc1ccccn1 [PCM-0102319] | 106 | 94.6 | 106
14 | – | 0 | 0 | O=C(CCl)Nc1ccc2c(c1)OCCO2 [PCM-0102324] | 63.3 | 8.2 | 35.2
15 | – | 0 | 0 | O=C(CCl)N1CC=C(c2c[nH]c3ccccc23)CC1 [PCM-0102631] | 77.7 | 46.3 | 15.3
16 | – | 0 | – | N#Cc1ccsc1NC(=O)CCl [PCM-0102768] | 74.6 | 45.9 | 46.1
17 | – | 0 | 0 | C=CC(=O)NC(C)c1ccc(C(F)(F)F)nc1Cl (stereo not drawn) [PCM-0103053] | 113 | 85.5 | 99.6
